Assay results published in PubChem BioAssay (NCI).
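Step 1: Grow cells in 96-well plates. Step 2: Expose to compound for 48 hours at 5 concentrations. Step 3: Interpolate endpoints linearly; if unreached, use highest concentration. At the GI50, growth is halved. TGI denotes the concentration required for complete inhibition of growth.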

Experiments:
Assay in all cases: DTP human tumour cell line panel, 48 h
[1] = test system: A549 NSCLC
[2] = test system: COLO 205 colon
[3] = test system: MALME-3M melanoma
[4] = test system: NCI-H460 lung
[5] = test system: OVCAR-5 ovarian
[6] = test system: OVCAR-8 ovarian
[7] = test system: PC-3 prostate
[8] = test system: SF-539 CNS
[9] = test system: SK-MEL-28 melanoma
[10] = test system: U251 CNS

Structure (SMILES)	GI50 [1] [µM]	TGI [1] [µM]	GI50 [2] [µM]	TGI [2] [µM]	GI50 [3] [µM]	TGI [3] [µM]	GI50 [4] [µM]	TGI [4] [µM]	GI50 [5] [µM]	TGI [5] [µM]	GI50 [6] [µM]	TGI [6] [µM]	GI50 [7] [µM]	TGI [7] [µM]	GI50 [8] [µM]	TGI [8] [µM]	GI50 [9] [µM]	TGI [9] [µM]	GI50 [10] [µM]	TGI [10] [µM]
CC(=O)OCC(=O)C1(O)C(C)CC2C3C=C(C)C4=Cc5c(cnn5-c5ccccc5)CC4(C)C3C(O)CC21C (stereo not given)	1.34	13.5	1.72	3.26	1.5	5.2	1.43	3.24	1.1	3.92	2.46	25.5	1.69	5.83	0.439	2.41	1.41	3.01	1	3.77
Brc1ccc(Br)nn1	12.5	32.4	2.12	3.77	1.75	3.7	3.04	> 33.8	11.7	24.8	2.4	9.26	4.41	22	3.25	12.2	1.42	2.76	1.47	3.18
CCc1ccccc1-n1c(N)c(C#N)c(-c2ccc(OC)c(OC)c2)c(C#N)c1=O	34.4	> 100	> 100	> 100	17.4	40.4	19.3	38.5	20.5	55.3	18.5	37.6	15.4	32.8	15	28.3	20.1	41.8	16.1	29.8
C[C@@H](Oc1cc(-c2cnn(C3CC4(CCCNC4)C3)c2)cnc1N)c1c(Cl)ccc(F)c1Cl (stereo not given in full)	1.22	4.12	0.384	1.5	1.3	3.12	0.826	2.53	1.29	4.93	2.06	5.93	1.25	6.83	1.59	3.02	1.54	3.03	1.41	3.43
C/C(=N\Nc1cccc(Cl)n1)c1ccccn1	0.932	> 100	0.38	> 21.5	1.78	8.71	0.482	8.33	0.819	> 100	0.51	> 100	0.89	> 100	0.578	4.53	1.65	> 100	0.582	> 100
N#CSCC(=O)c1ccc(Cl)cc1	9.14	> 49.7	2.65	7.94	5.76	42.9	3.16	18.7	5.39	27.9	4.78	22.4	3.95	57.5	2.85	14.9	6.17	19.8	3.23	16.6
COc1cc2c3c(c1O)C1(C=CC(=O)C=C1)CC3N(C)CC2 (stereo not given)	–	> 100	–	18.2	–	24.8	–	18.3	–	36.3	–	38.4	–	31.1	–	28.8	–	26	–	15.4
COC(=O)Nc1nc2ccc(Sc3ccccc3)cc2[nH]1	0.208	5.96	0.188	0.533	0.444	18.8	0.247	11.6	0.511	23.4	0.298	3.99	0.214	> 37.4	0.234	0.933	0.387	15.5	0.168	4.37
ClC1=C(Cl)C(Cl)=C(Cl)C1=Cc1ccc(Cl)cc1	0.918	2.54	0.406	1.52	1.42	3.6	0.726	2.18	0.705	2.05	0.36	2.27	0.876	6.5	0.733	2.18	1.4	2.8	0.344	1.23
